The NIST ThermoML archive (doi:10.1016/j.tca.2012.08.011)

Experiment: xn = mol fraction of the nth substance listed
Details: 101 kPa, Liquid; for speed of sound: Linear variable-path acoustic interferometer; for mass density: Vibrating tube method

NC1CCCCC1 [cyclohexylamine] + c1ccccc1
Details | mass density, 293.15 K [kg/m3] | mass density, 298.15 K [kg/m3] | mass density, 303.15 K [kg/m3] | speed of sound, 293.15 K [m/s] | speed of sound, 298.15 K [m/s] | speed of sound, 303.15 K [m/s] | speed of sound, 308.15 K [m/s]
x1 = 0.0621 | 877.45 | 872.22 | 866.94 | 1328 | 1304.7 | 1281.5 | 1258.4
x1 = 0.0938 | 876.73 | 871.52 | 866.31 | 1331 | 1307.7 | 1284.3 | 1261.5
x1 = 0.1434 | 875.68 | 870.56 | 865.4 | 1335.6 | 1312.3 | 1289.2 | 1266.2
x1 = 0.1546 | 875.47 | 870.34 | 865.2 | 1336.6 | 1313.4 | 1290.3 | 1267.5
x1 = 0.2031 | 874.52 | 869.46 | 864.38 | 1341.3 | 1318.1 | 1295.1 | 1272.5
x1 = 0.2475 | 873.73 | 868.71 | 863.69 | 1345.8 | 1322.7 | 1299.7 | 1277.2
x1 = 0.2972 | 872.9 | 867.95 | 862.98 | 1350.9 | 1327.9 | 1305.2 | 1282.6
x1 = 0.3472 | 872.15 | 867.25 | 862.36 | 1356.1 | 1333.3 | 1310.6 | 1288.1
x1 = 0.3945 | 871.5 | 866.64 | 861.76 | 1361.2 | 1338.4 | 1315.6 | 1293.2
x1 = 0.4786 | 870.45 | 865.69 | 860.88 | 1370.2 | 1347.5 | 1325 | 1302.7
x1 = 0.4948 | 870.28 | 865.5 | 860.72 | 1372.1 | 1349.2 | 1326.9 | 1304.6
x1 = 0.5013 | 870.2 | 865.45 | 860.67 | 1372.6 | 1349.9 | 1327.4 | 1305.1
x1 = 0.5389 | 869.83 | 865.08 | 860.32 | 1376.9 | 1354.3 | 1331.8 | 1309.4
x1 = 0.5396 | 869.83 | 865.08 | 860.32 | 1377 | 1354.4 | 1331.9 | 1309.5
x1 = 0.5419 | 869.8 | 865.06 | 860.3 | 1377.1 | 1354.6 | 1332.1 | 1309.8
x1 = 0.5927 | 869.3 | 864.62 | 859.9 | 1382.8 | 1360.2 | 1337.9 | 1315.5
x1 = 0.6428 | 868.89 | 864.23 | 859.54 | 1388.4 | 1365.8 | 1343.5 | 1321.3
x1 = 0.6927 | 868.55 | 863.88 | 859.24 | 1394.2 | 1371.8 | 1349.5 | 1327.3
x1 = 0.7465 | 868.2 | 863.59 | 858.96 | 1400.3 | 1378 | 1355.6 | 1333.5
x1 = 0.7962 | 867.93 | 863.33 | 858.72 | 1405.9 | 1383.7 | 1361.5 | 1339.7
x1 = 0.8474 | 867.74 | 863.17 | 858.58 | 1411.9 | 1389.9 | 1367.9 | 1345.9
x1 = 0.897 | 867.61 | 863.04 | 858.47 | 1418 | 1396 | 1374.1 | 1352.2
x1 = 0.9485 | 867.49 | 862.94 | 858.38 | 1424.2 | 1402.4 | 1380.5 | 1359
x1 = 1 | 867.39 | 862.85 | 858.31 | 1430.5 | 1408.8 | 1387.3 | 1366
